Results: patent US5049550A, “Diadenosine 5', 5'"-p^1, p^4,-tetraphosphate analogs as antithrombotic agents” (Worcester Foundation for Experimental Biology, priority 1988, dated 1991)
“Also recorded” adds a separate entry of the source. Read-outs that look alike come from different tables or passages of the source.

Tests used:
[1] = test system: rabbit platelet aggregation by ADP; test: ADP-induced aggregation of rabbit platelets; type: cell-based; settings: ADP 2×10^-5 M
Procedure: (§1) Rabbit carotid arterial blood was collected in 3.8% sodium citrate (9 volumes blood to 1 volume citrate). Platelet rich plasma (PRP) and platelet poor plasma (PPP) were prepared by centrifugation at 150 g and 1,000 g for 10 minutes respectively. Aggregation studies were performed in a Chrono-Log (Havertown, Pa.) aggregometer with ADP or collagen as aggregating agents. ADP (Sigma Chemical Co.) was used in a final concentration of 2×10^-5 M. Calf skin collagen (Sigma Chemical Co.) was used in a final concentration of 200 ug/ml.
(§2) The effect of AP4 A on rabbit platelet aggregation by ADP and collagen was tested. […] The anti-aggregatory effect of AP4 A was detected at a concentration of 2×10^-4 M (tenfold that of ADP) and increased in a dose-response pattern with increasing concentrations (FIG. 1).

[2] = test system: ADP-induced platelet aggregation; test: Kinetics of ADP-induced platelet aggregation (double-reciprocal plot); type: cell-based; settings: FIG. 6
Procedure: Changes in light transmission reflecting the velocity of ADP-induced platelet aggregability was determined using a platelet aggregometer. Born, G.V.P., Nature 184:927-929 (1962). […] The Y points on the X-intercept are altered by factors [formula] where I is the concentration of inhibitor, and Ki is a characteristic constant. Points on the X-intercept are given by the expression [formula] intercept when [I]=0. When [I] is known, the equation can be solved for Ki.

[3] = test system: ADP-Induced Platelet Aggregation; test: ADP-induced platelet aggregation in human platelet-rich plasma; type: cell-based; settings: for effect on platelet inhibition at 50 μM: even at 50 μM; for inhibition of platelet aggregation (in words): FIG. 5 at 12.5 μM; for inhibition of platelet aggregation compared with E10: ADP
Procedure: Human platelet-rich plasma was pre-incubated at 37° C. with the appropriate analogue for 1 minute. Aggregation was then induced by 5 μM ADP. ID50 values (i.e. concentration of analogue at which platelets are inhibited by 50 percent) were obtained from log-dose response plots.
FIG. 5 is a graphic representation of the data.
This Example illustrates that sulfur-containing analogues of AP4 A are as effective as E10 in inhibiting aggregation of platelets. Platelet aggregation was induced by ADP and its inhibition measured as in the previous Example.

[4] = test system: Intracarotid Artery Thrombosis; test: Intracarotid cannula arterial thrombosis model in rabbits; type: in vivo, rabbit
Procedure: Gurewich, V. and Lipinski, B. Thrombosis Research, 9:101 (1976); Louie, S. and Gurewich, V. Thrombosis Research, 30:323-335 (1983).
Male, New Zealand white rabbits, weighing 2-2.5 kg., were anesthetized with ketamine hydrochloride (100 mg/kg intramuscularly). AP4 A (Boehringer (100 Mannheim Biochemicals, Indianapolis, Ind.), or saline control was infused via a marginal ear vein. A segment of the left common carotid artery was isolated by vascular clamps. A 1 cm. length of polyethylene tubing (PE-90, Clay Adams, Parsippany, N.Y.) was inserted, secured by silk ligatures, and the blood flow re-established by removing the clamps. Blood was sampled from the right carotid artery for assays of AP4 A and ATP, and for platelet aggregation studies.
After preliminary trials, a standard AP4 A infusion protocol was established as follows: A dose of AP4 A at 50 mg/kg was reconstituted in 10 ml of normal saline and infused by pump at a uniform rate over two hours. Control rabbits received 10 ml of saline alone. The intracarotid cannula was inserted, and the re-establishment of blood flow timed at 15 minutes into the infusion. Upon the completion of infusion at 2 hours, the intracarotid tubing was removed, and its contents flushed out into a petri dish. The presence of a clot or of liquid blood contents was noted.
Twenty-five rabbits each were assigned to the experimental group that received AP4 A (50 mg/kg), and the control group that received normal saline alone. The incidence of clot formation in the intracarotid cannula in the two groups was compared by the Chi-Square test.
Initially, twelve rabbits received a constant infusion of E10 over a 2 hour period at a dosage of 100 mg in 10 ml. These intravenous infusions were performed as described above for AP4 A.
In addition, 30 mg of E10 in 3 ml saline was administered as a single injection over a one minute time span at the beginning of the cannulation period.

[5] = test system: Intracarotid Artery Thrombosis; settings: rabbit model, literature; cited from earlier work
[6] = test system: rabbit platelet aggregation by collagen; test: Collagen-induced aggregation of rabbit platelets; type: cell-based; settings: collagen 200 ug/ml
Procedure: as §1, §2

[7] = Homo sapiens, Platelet, Table 3, 5 μM ADP, 1 minute pre-incubation at 37° C., read-out: ID50 (concentration of analogue at which platelets are inhibited by 50 percent)
[8] = E10 30 mg, single injection over one minute, 6 rabbits
[9] = E10 100 mg, 2 h infusion, 12 rabbits
[10] = E10 total (100 mg + 30 mg series), 18 rabbits
[11] = Homo sapiens, Platelet, Table 5, sulfur-containing analogues, induced by ADP, read-out: ID50 (the source's name)

Compound: Nc1ncnc2c1ncn2[C@@H]1O[C@H](COP(=O)(O)OP(=O)(O)O)[C@@H](O)[C@H]1O [ADP, adenosine diphosphate, reference compound]
- platelet aggregation by agonist [1]: prompt and complete platelet aggregation
- Km [2]: 3 µM

Compound: Nc1ncnc2c1ncn2C1OC(COP(=O)(O)CP(=O)(O)OP(=O)(O)CP(=O)(O)OCC2OC(n3cnc4c(N)ncnc43)C(O)C2O)C(O)C1O (centres unmarked) [Analogue E1, Ap(CH2)pp(CH2)pA]
- IC50 ([3]; Table 3, 5 μM ADP, 1 minute pre-incubation at 37° C., read-out: ID50 (concentration of analogue at which platelets are inhibited by 50 percent)): > 50 µM
- effect on platelet inhibition at 50 μM [3]: no effect on platelet inhibition

Compound: Nc1ncnc2c1ncn2[C@@H]1O[C@H](COP(=O)(O)OP(=O)(O)CP(=O)(O)OP(=O)(O)OC[C@H]2O[C@@H](n3cnc4c(N)ncnc43)[C@H](O)[C@@H]2O)[C@@H](O)[C@H]1O [Analogue E2, App(CH2)ppA]
- IC50 [3, 7]: 22 µM

Compound: Nc1ncnc2c1ncn2[C@@H]1O[C@H](COP(=O)(O)OP(=O)(O)CCP(=O)(O)OP(=O)(O)OC[C@H]2O[C@@H](n3cnc4c(N)ncnc43)[C@H](O)[C@@H]2O)[C@@H](O)[C@H]1O [Analogue E3, App(CH2)2 ppA]
- IC50 [3, 7]: 11 µM

Compound: Nc1ncnc2c1ncn2[C@@H]1O[C@H](COP(=O)(O)CP(=O)(O)OP(=O)(O)CP(=O)(O)OC[C@H]2O[C@@H](n3cnc4c(N)ncnc43)[C@H](O)[C@@H]2O)[C@@H](O)[C@H]1O [Analogue E4, Ap(CH2)pp(CH2)pA]
- IC50 [3, 7]: > 50 µM
- effect on platelet inhibition at 50 μM [3]: no effect on platelet inhibition

Compound: Nc1ncnc2c1ncn2[C@@H]1O[C@H](COP(=O)(O)OP(=O)(O)C(F)P(=O)(O)OP(=O)(O)OC[C@H]2O[C@@H](n3cnc4c(N)ncnc43)[C@H](O)[C@@H]2O)[C@@H](O)[C@H]1O (some centres unmarked) [Analogue E5, App(CHF)ppA]
- inhibition of platelet aggregation (in words) ([3]; 5 μM ADP): particularly effective; also recorded: the next most effective in inhibiting platelet aggregation
- IC50 [3, 7]: 4 µM

Compound: Nc1ncnc2c1ncn2[C@@H]1O[C@H](COP(=O)(O)C(F)P(=O)(O)OP(=O)(O)C(F)P(=O)(O)OC[C@H]2O[C@@H](n3cnc4c(N)ncnc43)[C@H](O)[C@@H]2O)[C@@H](O)[C@H]1O (some centres unmarked) [Analogue E6, Ap(CHF)pp(CHF)pA]
- IC50 [3, 7]: 50 µM

Compound: Nc1ncnc2c1ncn2[C@@H]1O[C@H](COP(=O)(O)C(F)(F)P(=O)(O)OP(=O)(O)C(F)(F)P(=O)(O)OC[C@H]2O[C@@H](n3cnc4c(N)ncnc43)[C@H](O)[C@@H]2O)[C@@H](O)[C@H]1O [Analogue E7, Ap(CF2)pp(CF2)pA]
- IC50 [3, 7]: 15 µM

Compound: Nc1ncnc2c1ncn2[C@@H]1O[C@H](COP(=O)(O)OP(=O)(O)C(F)(F)P(=O)(O)OP(=O)(O)OC[C@H]2O[C@@H](n3cnc4c(N)ncnc43)[C@H](O)[C@@H]2O)[C@@H](O)[C@H]1O [Analogue E8, App(CF2)ppA]
- IC50 [3, 7]: 6 µM

Compound: Nc1ncnc2c1ncn2[C@@H]1O[C@H](COP(=O)(O)C(Cl)P(=O)(O)OP(=O)(O)C(Cl)P(=O)(O)OC[C@H]2O[C@@H](n3cnc4c(N)ncnc43)[C@H](O)[C@@H]2O)[C@@H](O)[C@H]1O (some centres unmarked) [Analogue E9, Ap(CHCl)pp(CHCl)pA]
- IC50 [3, 7]: 19 µM

Compound: Nc1ncnc2c1ncn2[C@@H]1O[C@H](COP(=O)(O)OP(=O)(O)C(Cl)P(=O)(O)OP(=O)(O)OC[C@H]2O[C@@H](n3cnc4c(N)ncnc43)[C@H](O)[C@@H]2O)[C@@H](O)[C@H]1O (some centres unmarked) [Analogue E10, diadenosine chloromethylene tetraphosphate]
- effect on clot formation compared to saline controls ([4]; E10 30 mg and 100 mg series combined): significantly reduces clot formation
- % Clots [4, 8]: 33%
- Clot Absent (rabbits) [4, 8]: 4
- Clot Present (rabbits) [4, 8]: 2
- fraction of rabbits with no incidence of clotting ([4]; E10 100 mg): two-thirds
- % Clots [4, 9]: 33%
- Clot Absent (rabbits) [4, 9]: 8
- Clot Present (rabbits) [4, 9]: 4
- % Clots [4, 10]: 33%
- Clot Absent (rabbits) [4, 10]: 12
- Clot Present (rabbits) [4, 10]: 6
- inhibition of platelet aggregation (in words) ([3]; 5 μM ADP): particularly effective; also recorded: the most effective inhibitor of platelet aggregation; also recorded: potent inhibitor of platelet aggregation; also recorded: potent inhibitors of platelet aggregation and blood clot formation
- IC50 [3, 7]: 3 µM
- IC50 [3, 11]: < 5 µM
- Ki ([2]; competitive inhibition of ADP-induced aggregation): 6.7 µM
- type / relative strength of inhibition ([2]; double reciprocal plot): superior to AP4 A as a competitive inhibitor

Compound: Nc1ncnc2c1ncn2[C@@H]1O[C@H](COP(=O)(O)C(Cl)(Cl)P(=O)(O)OP(=O)(O)C(Cl)(Cl)P(=O)(O)OC[C@H]2O[C@@H](n3cnc4c(N)ncnc43)[C@H](O)[C@@H]2O)[C@@H](O)[C@H]1O [Analogue E11, Ap(CCL2)pp(CCl2)pA]
- IC50 [3, 7]: 9 µM

Compound: Nc1ncnc2c1ncn2[C@@H]1O[C@H](COP(=O)(O)OP(=O)(O)C(Cl)(Cl)P(=O)(O)OP(=O)(O)OC[C@H]2O[C@@H](n3cnc4c(N)ncnc43)[C@H](O)[C@@H]2O)[C@@H](O)[C@H]1O [Analogue E12, App(CCl2)ppA]
- IC50 [3, 7]: 10 µM

Compound: Nc1ncnc2c1ncn2[C@@H]1O[C@H](COP(O)(=S)OP(=O)(O)C(F)P(=O)(O)OP(O)(=S)OC[C@H]2O[C@@H](n3cnc4c(N)ncnc43)[C@H](O)[C@@H]2O)[C@@H](O)[C@H]1O (some centres unmarked) [Analogue E13, Aps p(CHF)pps A]
- IC50 [3, 11]: 7 µM
- inhibition of platelet aggregation compared with E10 ([3]; sulfur-containing analogues): an inhibitory effect as great as E10

Compound: Nc1ncnc2c1ncn2[C@@H]1O[C@H](COP(O)(=S)OP(=O)(O)C(F)(F)P(=O)(O)OP(O)(=S)OC[C@H]2O[C@@H](n3cnc4c(N)ncnc43)[C@H](O)[C@@H]2O)[C@@H](O)[C@H]1O (some centres unmarked) [Analogue E14, Aps p(CF2)pps A]
- IC50 [3, 11]: 17 µM

Compound: Nc1ncnc2c1ncn2[C@@H]1O[C@H](COP(O)(=S)OP(=O)(O)OP(=O)(O)OP(O)(=S)OC[C@H]2O[C@@H](n3cnc4c(N)ncnc43)[C@H](O)[C@@H]2O)[C@@H](O)[C@H]1O (some centres unmarked) [Analogue E15, Aps ppps A]
- IC50 [3, 11]: 6 µM
- inhibition of platelet aggregation compared with E10 ([3]; sulfur-containing analogues): an inhibitory effect as great as E10

Compound: CC(=O)Oc1ccccc1C(=O)O [aspirin]
- effect on clot formation in intracarotid cannula [5]: can be modified

Compound: OCCN(CCO)c1nc(N2CCCCC2)c2nc(N(CCO)CCO)nc(N3CCCCC3)c2n1 [dipyridamole]
- effect on clot formation in intracarotid cannula [5]: can be modified

Compound: CCCCCCCCNC(C)C(O)c1ccc(SC(C)C)cc1 (centres unmarked) [suloctidil]
- effect on clot formation in intracarotid cannula [5]: can be modified

Compound: collagen: Calf skin collagen (Sigma Chemical Co.) [reference compound]
- platelet aggregation by agonist [6]: prompt and complete platelet aggregation
